Measurements reported in US9493426B2, “Quinazolinone derivatives useful as FGFR kinase modulators” (priority 2013, dated 2016).
Read-outs that look alike come from different tables or passages of the source.

Legend:
[1] = target: Ba/F3-FGFR4-transfected cells (Homo sapiens, UniProt P22455, cells depend on it, form not given); assay: Ba/F3-FGFR4 cellular proliferation assay; type: cell-based; conditions: 24 hours, Alamar Blue
Method: Ba/F3-FGFR4 (Cellular Proliferation Assay)
(§1) In a 384 well plate, 100 nl of compound dilution in DMSO was sprayed before adding 50 μl cell culture medium (phenol red free RPMI-1640, 10% FBS, 2 mM L-Glutamine and 50 μg/ml Gentamycin) containing 20000 cells per well of Ba/F3-FGFR4-transfected cells. Cells were put in an incubator at 37° C. and 5% CO2. After 24 hours, 10 μl of Alamar Blue solution (0.5 mM K3Fe(CN)6, 0.5 mM K4Fe(CN)6, 0.15 mM Resazurin and 100 mM Phosphate Buffer) was added to the wells, incubated for 4 hours at 37° C. and 5% CO2 before RFU's (Relative Fluorescence Units) (ex. 540 nm., em. 590 nm.) were measured in a fluorescence plate reader.
In this assay, the inhibitory effect of different compound concentrations (range 10 μM to 0.1 nM) was determined and used to calculate an IC50 (M) and pIC50 (−log IC50) value.

FGFR1 (h) = FGFR1 (h) (Homo sapiens, UniProt P11362); assay: FGFR1 (enzymatic assay), TR-FRET; type: biochemical
[2] = target: T1, Ba/F3-FGFR3-transfected cells (Homo sapiens, UniProt P22607, cells depend on it, form not given); assay: Ba/F3-FGFR3 (minus IL3 or plus IL3) cellular proliferation assay; type: cell-based; conditions: 24 hours, Alamar Blue
T1 construct: BAF3-FGFR3 (MIN IL3 pIC50); other: minus IL3; 24 hours, Alamar Blue
Method: Ba/F3-FGFR3 (Minus IL3 or Plus IL3) (Cellular Proliferation Assay)
as §1, with “Ba/F3-FGFR3-transfected” for “Ba/F3-FGFR4-transfected”
(§2) In this assay, the inhibitory effect of different compound concentrations (range 10 μM to 0.1 nM) was determined and used to calculate an IC50 (M) and pIC50 (−log IC50) value. As a counterscreen the same experiment was performed in the presence of 10 ng/ml murine IL3.

FGFR3 = target: T2, FGFR3 (Homo sapiens, UniProt P22607); assay: Enzyme binding assay (KINOMEscan) FGFR3; conditions: pKd = -log Kd (M), read-out: FGFR3_pKd (converted)
T2 construct: purchased DiscoveRx Corporation
Method: (§3) Enzyme Binding Assays (KINOMEscan®)
(§4) Kinase enzyme binding affinities of compounds disclosed herein were determined using the KINOMEscan® technology performed by DiscoveRx Corporation, San Diego, Calif., USA (www.kinomescan.com).

FGFR1 = target: T3, FGFR1 (Homo sapiens, UniProt P11362); assay: Enzyme binding assay (KINOMEscan) FGFR1; conditions: FGFR1_pKd, pKd = -log Kd (M)
T3 construct: purchased DiscoveRx Corporation
Method: as §3, §4

FGFR3 (h) = FGFR3 (h) (Homo sapiens, UniProt P22607); assay: FGFR3 (enzymatic assay), TR-FRET; type: biochemical
FGFR4 (h) = FGFR4 (h) (Homo sapiens, UniProt P22455); assay: FGFR4 (enzymatic assay), TR-FRET; type: biochemical; conditions: 5 μM ATP; pIC50 = -log IC50 (M); read-out: FGFR 4 pIC50 (converted)
FGFR4 (h), sequence (P22455 22-802): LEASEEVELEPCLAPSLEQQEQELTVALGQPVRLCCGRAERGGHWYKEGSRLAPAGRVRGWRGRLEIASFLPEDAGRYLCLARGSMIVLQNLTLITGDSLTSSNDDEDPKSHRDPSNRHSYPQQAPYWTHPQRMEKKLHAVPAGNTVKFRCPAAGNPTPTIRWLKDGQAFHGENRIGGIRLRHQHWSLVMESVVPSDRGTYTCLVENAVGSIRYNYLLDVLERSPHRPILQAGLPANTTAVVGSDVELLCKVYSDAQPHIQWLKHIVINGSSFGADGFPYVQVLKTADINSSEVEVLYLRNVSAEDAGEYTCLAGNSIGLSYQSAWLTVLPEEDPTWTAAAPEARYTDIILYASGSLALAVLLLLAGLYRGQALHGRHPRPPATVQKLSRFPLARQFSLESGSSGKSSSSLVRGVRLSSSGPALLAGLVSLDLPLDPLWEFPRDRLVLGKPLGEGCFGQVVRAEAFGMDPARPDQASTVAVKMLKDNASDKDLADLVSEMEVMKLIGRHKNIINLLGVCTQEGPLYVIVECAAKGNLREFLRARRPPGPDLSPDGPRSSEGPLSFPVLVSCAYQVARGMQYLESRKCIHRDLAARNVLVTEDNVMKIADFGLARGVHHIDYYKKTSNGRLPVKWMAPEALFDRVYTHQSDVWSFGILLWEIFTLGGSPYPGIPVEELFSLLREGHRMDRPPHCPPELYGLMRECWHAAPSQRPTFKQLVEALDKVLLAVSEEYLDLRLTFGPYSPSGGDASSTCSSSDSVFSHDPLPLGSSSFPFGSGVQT

FGFR2 (h) = FGFR2 (h) (Homo sapiens, UniProt P21802); assay: FGFR2 (enzymatic assay), TR-FRET; type: biochemical
FGFR2 (h), sequence (P21802 22-821): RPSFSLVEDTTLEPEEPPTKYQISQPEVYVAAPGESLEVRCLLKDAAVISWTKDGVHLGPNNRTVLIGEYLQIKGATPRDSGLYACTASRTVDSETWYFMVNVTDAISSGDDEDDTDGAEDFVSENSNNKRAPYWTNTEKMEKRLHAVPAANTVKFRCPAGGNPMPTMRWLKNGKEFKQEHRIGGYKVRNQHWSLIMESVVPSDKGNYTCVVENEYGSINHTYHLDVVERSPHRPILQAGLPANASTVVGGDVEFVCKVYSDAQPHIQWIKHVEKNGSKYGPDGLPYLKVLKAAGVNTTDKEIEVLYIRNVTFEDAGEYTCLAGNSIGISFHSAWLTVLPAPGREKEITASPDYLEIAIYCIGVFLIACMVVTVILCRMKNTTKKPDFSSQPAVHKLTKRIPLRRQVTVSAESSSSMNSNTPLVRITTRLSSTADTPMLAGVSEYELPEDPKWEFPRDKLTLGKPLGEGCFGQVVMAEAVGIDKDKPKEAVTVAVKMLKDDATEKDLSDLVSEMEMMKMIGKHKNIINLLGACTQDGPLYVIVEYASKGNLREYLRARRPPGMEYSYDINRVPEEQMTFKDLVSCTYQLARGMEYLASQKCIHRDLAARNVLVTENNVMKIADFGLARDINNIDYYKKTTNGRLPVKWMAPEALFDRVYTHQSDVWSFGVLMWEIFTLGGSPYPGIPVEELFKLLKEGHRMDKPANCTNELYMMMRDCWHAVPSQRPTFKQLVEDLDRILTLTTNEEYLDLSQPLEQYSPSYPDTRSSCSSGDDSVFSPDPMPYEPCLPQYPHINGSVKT

[3] = target: T4, Ba/F3-KDR-transfected cells (Homo sapiens, UniProt P35968, cells depend on it, form not given); assay: Ba/F3-KDR (minus IL3 or plus IL3) cellular proliferation assay; type: cell-based; conditions: 24 hours, Alamar Blue
T4 construct: BAF3-KDR (MIN IL3 pIC50); other: minus IL3; 24 hours, Alamar Blue
T4 sequence (P35968 whole entry, looked up, change not shown): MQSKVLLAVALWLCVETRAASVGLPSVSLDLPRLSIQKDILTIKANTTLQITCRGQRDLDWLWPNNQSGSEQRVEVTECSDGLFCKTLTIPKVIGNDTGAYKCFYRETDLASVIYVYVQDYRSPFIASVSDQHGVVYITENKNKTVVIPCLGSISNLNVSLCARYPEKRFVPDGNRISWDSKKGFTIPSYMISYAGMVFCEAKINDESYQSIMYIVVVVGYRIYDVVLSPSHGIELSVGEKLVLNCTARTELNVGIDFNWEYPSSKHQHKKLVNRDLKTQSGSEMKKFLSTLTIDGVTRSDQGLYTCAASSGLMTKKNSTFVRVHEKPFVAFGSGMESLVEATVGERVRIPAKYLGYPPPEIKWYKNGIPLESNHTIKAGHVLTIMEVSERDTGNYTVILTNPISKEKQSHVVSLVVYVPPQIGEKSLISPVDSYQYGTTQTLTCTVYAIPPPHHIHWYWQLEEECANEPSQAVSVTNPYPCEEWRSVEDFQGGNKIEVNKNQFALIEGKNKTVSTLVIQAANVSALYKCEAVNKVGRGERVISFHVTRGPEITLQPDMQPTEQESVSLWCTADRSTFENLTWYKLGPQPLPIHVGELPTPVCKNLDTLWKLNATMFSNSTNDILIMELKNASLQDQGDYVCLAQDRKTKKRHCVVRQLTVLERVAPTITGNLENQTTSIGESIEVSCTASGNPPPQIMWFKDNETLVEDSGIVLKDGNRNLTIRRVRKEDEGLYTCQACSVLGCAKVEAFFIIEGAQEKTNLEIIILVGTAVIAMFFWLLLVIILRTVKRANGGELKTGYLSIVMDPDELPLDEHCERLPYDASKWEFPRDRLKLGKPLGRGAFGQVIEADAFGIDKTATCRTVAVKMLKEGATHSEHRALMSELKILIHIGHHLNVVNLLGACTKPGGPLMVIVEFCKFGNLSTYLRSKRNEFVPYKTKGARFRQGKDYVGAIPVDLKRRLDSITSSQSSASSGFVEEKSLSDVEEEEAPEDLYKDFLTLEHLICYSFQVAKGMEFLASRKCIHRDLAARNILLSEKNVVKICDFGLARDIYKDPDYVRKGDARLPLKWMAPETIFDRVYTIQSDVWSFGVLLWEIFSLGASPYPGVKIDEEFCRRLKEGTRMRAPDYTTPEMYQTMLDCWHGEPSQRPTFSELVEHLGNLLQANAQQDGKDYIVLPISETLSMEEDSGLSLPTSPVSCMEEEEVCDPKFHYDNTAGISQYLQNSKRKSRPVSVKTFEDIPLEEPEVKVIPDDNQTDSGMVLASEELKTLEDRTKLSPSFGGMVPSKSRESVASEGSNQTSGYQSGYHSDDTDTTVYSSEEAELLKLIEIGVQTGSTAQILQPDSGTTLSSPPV
Method: Ba/F3-KDR (Minus IL3 or Plus IL3) (Cellular Proliferation Assay)
as §1, with “Ba/F3-KDR-transfected” for “Ba/F3-FGFR4-transfected”
as §2

FGFR4 = target: T5, FGFR4 (Homo sapiens, UniProt P22455); assay: Enzyme binding assay (KINOMEscan) FGFR4; conditions: pKd = -log Kd (M), read-out: FGFR4_pKd (converted)
T5 construct: purchased DiscoveRx Corporation
Method: as §3, §4

VEGFR2 = target: T6, VEGFR2 (Homo sapiens, UniProt P35968); assay: Enzyme binding assay (KINOMEscan) VEGFR2; conditions: pKd = -log Kd (M), read-out: VEGFR2_pKd (converted)
T6 construct: purchased DiscoveRx Corporation
Method: as §3, §4

KDR (h) = KDR (h) (Homo sapiens, UniProt P35968); assay: KDR (VEGFR2) (enzymatic assay), TR-FRET; type: biochemical; conditions: 3 μM ATP; pIC50 = -log IC50 (M); read-out: VEGFR KDR pIC50 (converted)
KDR (h), sequence (P35968 20-1356): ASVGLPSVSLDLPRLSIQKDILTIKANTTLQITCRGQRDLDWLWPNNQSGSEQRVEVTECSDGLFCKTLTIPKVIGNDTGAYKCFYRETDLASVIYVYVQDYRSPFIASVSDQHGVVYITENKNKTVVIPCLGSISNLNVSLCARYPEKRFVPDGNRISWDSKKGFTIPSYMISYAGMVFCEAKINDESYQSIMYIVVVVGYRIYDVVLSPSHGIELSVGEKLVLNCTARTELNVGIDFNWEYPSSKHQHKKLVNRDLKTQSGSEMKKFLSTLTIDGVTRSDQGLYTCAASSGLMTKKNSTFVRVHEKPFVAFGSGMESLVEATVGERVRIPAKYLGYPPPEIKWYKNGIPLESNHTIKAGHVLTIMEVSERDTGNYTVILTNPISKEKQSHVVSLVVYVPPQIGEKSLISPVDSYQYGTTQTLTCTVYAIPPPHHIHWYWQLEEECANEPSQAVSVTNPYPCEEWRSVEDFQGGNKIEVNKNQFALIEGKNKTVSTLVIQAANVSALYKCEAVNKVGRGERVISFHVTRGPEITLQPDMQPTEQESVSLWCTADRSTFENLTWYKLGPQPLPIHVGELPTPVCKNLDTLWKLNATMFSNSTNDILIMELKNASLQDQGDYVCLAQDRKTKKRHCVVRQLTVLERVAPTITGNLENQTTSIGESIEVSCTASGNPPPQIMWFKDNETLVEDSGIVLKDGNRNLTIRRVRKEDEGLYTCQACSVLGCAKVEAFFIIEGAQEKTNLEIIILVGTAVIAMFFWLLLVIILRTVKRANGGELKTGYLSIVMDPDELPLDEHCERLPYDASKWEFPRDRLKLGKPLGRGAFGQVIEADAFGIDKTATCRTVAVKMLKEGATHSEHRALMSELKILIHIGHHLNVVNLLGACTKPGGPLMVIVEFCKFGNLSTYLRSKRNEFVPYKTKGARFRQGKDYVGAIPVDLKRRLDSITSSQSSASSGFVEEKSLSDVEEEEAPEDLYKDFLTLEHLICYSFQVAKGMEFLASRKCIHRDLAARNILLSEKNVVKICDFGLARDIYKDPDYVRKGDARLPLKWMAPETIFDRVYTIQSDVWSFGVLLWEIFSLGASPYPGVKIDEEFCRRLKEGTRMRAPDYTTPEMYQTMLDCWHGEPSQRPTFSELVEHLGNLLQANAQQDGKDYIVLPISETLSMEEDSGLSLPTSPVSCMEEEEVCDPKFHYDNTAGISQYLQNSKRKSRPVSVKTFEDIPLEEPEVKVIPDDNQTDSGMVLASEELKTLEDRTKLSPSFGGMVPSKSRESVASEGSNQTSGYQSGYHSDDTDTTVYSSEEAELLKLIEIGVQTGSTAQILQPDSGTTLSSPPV
Method: KDR (VEGFR2) (Enzymatic Assay)
In a final reaction volume of 30 μL, KDR (h) (150 ng/ml) was incubated with 50 mM HEPES pH 7.5, 6 mM MnCl2, 1 mM DTT, 0.1 mM Na3VO4, 0.01% Triton-X-100, 500 nM Btn-Flt3 and 3 μM ATP in the presence of compound (1% DMSO final). After incubation for 120 minutes at room temperature the reaction was stopped with 2.27 nM EU-anti P-Tyr, 7 mM EDTA, 31.25 nM SA-XL-665 and 0.02% BSA which was present for 60 minutes at room temperature. Time-Resolved Fluorescence Resonance Energy Transfer (TR-FRET) signal (ex340 nm. Em 620 nm, em 655 nm) was measured afterwards and results are expressed in RFU (Relative Fluorescence Units). In this assay, the inhibitory effect of different compound concentrations (range 10 μM to 0.1 nM) was determined and used to calculate an IC50 (M) and pIC50 (−log IC50) value.

FGFR2 = target: T7, FGFR2 (Homo sapiens, UniProt P21802); assay: Enzyme binding assay (KINOMEscan) FGFR2; conditions: pKd = -log Kd (M), read-out: FGFR2_pKd (converted)
T7 construct: purchased DiscoveRx Corporation
Method: as §3, §4

[4] = target: T8, Ba/F3-FGFR1-transfected cells (Homo sapiens, UniProt P11362); assay: Ba/F3-FGFR1 (minus IL3 or plus IL3) cellular proliferation assay; type: cell-based; conditions: 24 hours, Alamar Blue
T8 construct: other: minus IL3; 24 hours, Alamar Blue
T8 sequence (P11362 whole entry, change not shown): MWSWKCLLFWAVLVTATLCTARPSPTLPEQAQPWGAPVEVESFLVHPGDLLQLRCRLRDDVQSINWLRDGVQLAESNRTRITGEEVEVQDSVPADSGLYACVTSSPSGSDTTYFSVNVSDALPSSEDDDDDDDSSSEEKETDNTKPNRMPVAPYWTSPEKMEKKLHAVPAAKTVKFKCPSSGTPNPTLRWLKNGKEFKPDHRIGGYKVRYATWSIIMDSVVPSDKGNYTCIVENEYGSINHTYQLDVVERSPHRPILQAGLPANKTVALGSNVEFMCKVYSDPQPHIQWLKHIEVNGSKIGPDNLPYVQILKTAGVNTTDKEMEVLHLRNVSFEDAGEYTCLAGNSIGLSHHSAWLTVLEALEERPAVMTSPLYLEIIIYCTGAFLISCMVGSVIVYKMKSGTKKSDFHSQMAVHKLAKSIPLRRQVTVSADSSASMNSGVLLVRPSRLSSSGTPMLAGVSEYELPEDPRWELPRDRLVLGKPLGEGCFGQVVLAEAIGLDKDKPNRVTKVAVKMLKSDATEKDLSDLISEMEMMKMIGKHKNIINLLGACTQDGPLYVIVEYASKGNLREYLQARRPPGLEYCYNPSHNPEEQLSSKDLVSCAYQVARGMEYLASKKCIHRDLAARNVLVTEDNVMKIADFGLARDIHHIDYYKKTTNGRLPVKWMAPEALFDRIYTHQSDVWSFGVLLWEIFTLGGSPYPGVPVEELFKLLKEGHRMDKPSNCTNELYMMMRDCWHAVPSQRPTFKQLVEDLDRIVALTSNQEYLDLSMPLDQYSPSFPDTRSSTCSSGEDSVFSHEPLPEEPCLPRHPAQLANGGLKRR
Method: Ba/F3-FGFR1 (Minus IL3 or Plus IL3) (Cellular Proliferation Assay)
as §1, with “Ba/F3-FGFR1-transfected” for “Ba/F3-FGFR4-transfected”
as §2

[5] = 25 μM ATP, pIC50 = -log IC50 (M), read-out: FGFR3 pIC50 (converted)
[6] = 0.4 μM ATP, pIC50 = -log IC50 (M), read-out: FGFR 2 pIC50 (converted)

SMILES | melting point | BAF3-FGFR4 (pIC50) [1] | IC50 (FGFR1 (h)) | BAF3-FGFR3 (MIN IL3 pIC50) [2] | Kd (FGFR3) | Kd (FGFR1) | IC50 (FGFR3 (h); [5]) | IC50 (FGFR4 (h)) | IC50 (FGFR2 (h); [6]) | BAF3-KDR (MIN IL3 pIC50) [3] | Kd (FGFR4) | Kd (VEGFR2) | IC50 (KDR (h)) | Kd (FGFR2) | BAF3-FGFR1 (MIN IL3 pIC50) [4] | IC50 (FGFR3 (h)) | IC50 (FGFR2 (h))
COc1cc(OC)cc(N(CCO)c2ccc3ncn(-c4ccccc4)c(=O)c3c2)c1 [Compound 7] | 171 °C | <5 | 0.631 µM | <5 | > 1e-06 M | > 1e-06 M | 3.16e-07 M | 3.98e-06 M | 3.98e-07 M | <5 | > 1e-06 M | > 1e-06 M | > 1e-06 M | > 1e-06 M | <5 |  | 
COc1cc(OC)c(F)c(N(CCO)c2ccc3ncn(-c4cnn(C)c4)c(=O)c3c2)c1 [Compound 16] | 164 °C | 5.7 | 0.0126 µM | 6.4 |  |  | 2.51e-09 M | 2.51e-08 M | 5.01e-09 M | 5.2 |  |  | 2e-07 M |  | 6.3 |  | 
COc1cc(OC)cc(N(CCNC(C)C)c2ccc3ncn(-c4cnn(C)c4)c(=O)c3c2)c1 [Compound 9] | 142 °C | 6.2 | 0.00501 µM | ~7.09 |  |  | 1e-08 M | 5.01e-08 M | 6.31e-09 M | 5.2 |  |  | 5.01e-07 M |  | 7.2 |  | 
COc1cc(OC)c(F)c(N(CCO)c2ccc3ncn(-c4ccccc4)c(=O)c3c2)c1 [Compound 6] | 183 °C | 5.0 | 0.0794 µM | 5.5 |  |  |  | 3.16e-07 M | 5.01e-08 M | <5 |  |  | > 1e-06 M |  | 5.5 | 3.98e-08 M | 
CNCCN(c1ccc2ncn(-c3cnn(C)c3)c(=O)c2c1)c1c(F)c(OC)cc(OC)c1F [Compound 20] | 141 °C | 6.7 | 0.01 µM | 7.6 |  |  |  | 2.51e-08 M | 1.26e-08 M | 6.0 |  |  | 1.58e-07 M |  | 7.6 | 1.26e-08 M | 
COc1cc(OC)c(Cl)c(N(CCO)c2ccc3ncn(-c4cnn(C)c4)c(=O)c3c2)c1Cl [Compound 10] | 223 °C | 5.1 | 0.0126 µM | 6.3 |  |  | 7.94e-09 M | 2e-07 M | 1.58e-08 M | ~5 |  |  | 5.01e-07 M |  | 6.2 |  | 
COc1cc(OC)c(F)c(N(CCNC(C)C)c2ccc3ncn(-c4ccccc4)c(=O)c3c2)c1F [Compound 2] | 124 °C | 6.3 | 0.00631 µM | 7.6 |  |  | 2.51e-08 M | 3.98e-08 M | 2.51e-08 M | 5.7 |  |  | 2.51e-07 M |  | 7.7 |  | 
COc1cc(OC)cc(N(CCO)c2ccc3ncn(-c4cnn(C)c4)c(=O)c3c2)c1 [Compound 8] | 185 °C | 5.2 | 0.0501 µM | 5.6 |  |  | 2e-08 M | 1.58e-07 M | 2.51e-08 M | <5 |  |  | 7.94e-07 M |  | 5.4 |  | 
COc1cc(OC)c(F)c(N(Cc2ncc[nH]2)c2ccc3ncn(-c4cnn(C)c4)c(=O)c3c2)c1 [Compound 15] | 212 °C | 5.8 | 0.00501 µM | ~7.15 |  |  | 2.51e-09 M | 7.94e-09 M |  | <5 |  |  | 3.98e-07 M |  | 6.7 |  | 5.01e-09 M
COc1cc(OC)c(F)c(N(Cc2ncc[nH]2)c2ccc3ncn(-c4cnn(C)c4)c(=O)c3c2)c1F [Compound 22] | 231 °C | 6.7 | 0.00398 µM | 7.4 |  |  | 3.16e-09 M | 5.01e-09 M | 5.01e-09 M | 5.3 |  |  | 1.26e-07 M |  | 6.8 |  | 
COc1cc(OC)c(Cl)c(N(CCO)c2ccc3ncn(-c4ccccc4)c(=O)c3c2)c1Cl [Compound 5] | 251 °C | <5 | 0.0631 µM | 5.3 |  |  | 2.51e-08 M | 5.01e-07 M | 3.98e-08 M | <5 |  |  | ~1e-06 M |  | 5.5 |  | 
